Results taken from US20230210870A1, “METHODS OF TREATING FEMALE HEALTH CONDITIONS RELATED TO SEX HORMONES” (priority 2020, published 2023).
pEC50, pIC50: −log10 of the molar value.

Columns and labels:
GABAA receptor subtypes = assay: FLIPR panel of 18 GABAA receptor subtypes; assay type: cell-based; settings: for modulating activity across GABAA receptor subtypes tested: 18 subtypes, FLIPR
Experimental: (§1) Cells expressing the indicated GABAA receptor subtype were exposed to gamma-aminobutyric acid in the presence of varying concentrations of either CV-10155 or SPNC-019, calcium flux was measured using a fluorometric imaging plate reader (FLIPR), and EC50 values for compounds were determined.
The results further indicate that the isomeric purity of compositions containing compounds of Formula (I) greatly impacts the utility of such compositions as therapeutic agents.

α4β3δ GABAA receptor [1] = target: T1, α4β3δ GABAA receptor (Homo sapiens, UniProt P28472+P48169); assay: FLIPR modulation of GABA response in cells expressing GABAA receptor subtype; assay type: cell-based; set-up: expressed in transfected cells; settings: in presence of GABA, — = value not measurable
T1 sequence (P48169 36-554): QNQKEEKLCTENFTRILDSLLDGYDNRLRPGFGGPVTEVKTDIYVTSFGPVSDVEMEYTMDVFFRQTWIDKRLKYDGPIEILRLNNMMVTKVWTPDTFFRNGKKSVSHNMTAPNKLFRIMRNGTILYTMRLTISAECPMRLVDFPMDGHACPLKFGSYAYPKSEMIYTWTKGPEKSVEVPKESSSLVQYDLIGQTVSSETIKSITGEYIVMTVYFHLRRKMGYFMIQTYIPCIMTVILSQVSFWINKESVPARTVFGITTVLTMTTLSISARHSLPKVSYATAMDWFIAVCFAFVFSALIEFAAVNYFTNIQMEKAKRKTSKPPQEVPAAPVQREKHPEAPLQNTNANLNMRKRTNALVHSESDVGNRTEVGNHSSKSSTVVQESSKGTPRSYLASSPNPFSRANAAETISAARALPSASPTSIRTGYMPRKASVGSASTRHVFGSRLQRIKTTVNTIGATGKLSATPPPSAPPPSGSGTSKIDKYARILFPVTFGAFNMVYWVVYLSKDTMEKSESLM
T1 sequence (P28472 26-473): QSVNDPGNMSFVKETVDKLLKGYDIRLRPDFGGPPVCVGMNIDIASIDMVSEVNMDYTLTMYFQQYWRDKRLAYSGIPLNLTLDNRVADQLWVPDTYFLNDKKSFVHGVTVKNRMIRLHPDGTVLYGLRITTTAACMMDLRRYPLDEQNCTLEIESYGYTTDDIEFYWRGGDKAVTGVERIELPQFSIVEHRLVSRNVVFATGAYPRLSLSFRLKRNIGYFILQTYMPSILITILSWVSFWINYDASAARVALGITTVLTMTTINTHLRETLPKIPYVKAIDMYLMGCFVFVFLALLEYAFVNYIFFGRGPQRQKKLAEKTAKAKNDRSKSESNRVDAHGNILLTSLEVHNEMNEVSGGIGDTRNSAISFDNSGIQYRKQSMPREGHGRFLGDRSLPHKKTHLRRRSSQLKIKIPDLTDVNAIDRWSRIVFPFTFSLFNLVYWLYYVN
T1 sequence (O14764 25-452 partner): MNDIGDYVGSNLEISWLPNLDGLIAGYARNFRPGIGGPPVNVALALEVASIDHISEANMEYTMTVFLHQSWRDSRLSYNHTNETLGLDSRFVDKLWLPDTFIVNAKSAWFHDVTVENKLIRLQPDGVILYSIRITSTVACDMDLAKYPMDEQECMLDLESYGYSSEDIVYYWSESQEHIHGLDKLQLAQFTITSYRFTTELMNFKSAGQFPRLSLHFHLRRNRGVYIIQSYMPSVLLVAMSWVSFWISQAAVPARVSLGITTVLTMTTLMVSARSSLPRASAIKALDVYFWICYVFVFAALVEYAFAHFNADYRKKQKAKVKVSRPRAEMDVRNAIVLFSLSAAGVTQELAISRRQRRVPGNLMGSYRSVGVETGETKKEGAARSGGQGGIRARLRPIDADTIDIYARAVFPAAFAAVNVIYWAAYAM
Experimental: as §1

α3β2γ2 GABAA receptor = target: T2, α3β2γ2 GABAA receptor (Homo sapiens, UniProt P34903+P47870); assay: as above; assay type: cell-based; settings: in presence of GABA, — = value not measurable
T2 construct: expressed in transfected cells
T2 sequence (P34903 29-492): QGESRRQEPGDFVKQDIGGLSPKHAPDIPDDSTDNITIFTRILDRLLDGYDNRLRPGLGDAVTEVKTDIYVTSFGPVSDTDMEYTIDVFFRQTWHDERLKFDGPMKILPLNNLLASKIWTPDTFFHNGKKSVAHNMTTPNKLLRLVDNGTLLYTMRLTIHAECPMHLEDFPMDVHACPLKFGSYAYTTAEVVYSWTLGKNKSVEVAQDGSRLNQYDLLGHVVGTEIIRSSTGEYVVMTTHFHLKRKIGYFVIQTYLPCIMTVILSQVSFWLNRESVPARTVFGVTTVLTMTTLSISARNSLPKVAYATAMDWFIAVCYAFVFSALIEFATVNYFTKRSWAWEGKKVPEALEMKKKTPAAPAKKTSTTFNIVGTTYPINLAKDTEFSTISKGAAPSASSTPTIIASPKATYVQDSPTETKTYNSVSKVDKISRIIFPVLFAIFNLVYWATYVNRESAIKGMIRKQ
T2 sequence (P47870 25-512 limits assumed): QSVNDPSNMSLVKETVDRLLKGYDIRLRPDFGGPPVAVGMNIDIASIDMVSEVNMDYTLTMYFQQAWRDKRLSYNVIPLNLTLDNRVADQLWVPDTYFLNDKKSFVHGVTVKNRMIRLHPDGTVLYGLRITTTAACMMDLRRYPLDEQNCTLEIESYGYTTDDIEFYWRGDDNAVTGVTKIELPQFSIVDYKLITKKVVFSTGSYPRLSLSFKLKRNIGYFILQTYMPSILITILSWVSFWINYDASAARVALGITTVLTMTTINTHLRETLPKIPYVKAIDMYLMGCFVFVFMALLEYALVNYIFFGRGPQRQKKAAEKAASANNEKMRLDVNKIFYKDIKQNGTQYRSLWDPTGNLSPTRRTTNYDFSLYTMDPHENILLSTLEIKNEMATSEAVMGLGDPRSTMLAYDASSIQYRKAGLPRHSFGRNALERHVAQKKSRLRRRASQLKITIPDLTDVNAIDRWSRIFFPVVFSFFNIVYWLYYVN
T2 sequence (P18507 40-475 partner): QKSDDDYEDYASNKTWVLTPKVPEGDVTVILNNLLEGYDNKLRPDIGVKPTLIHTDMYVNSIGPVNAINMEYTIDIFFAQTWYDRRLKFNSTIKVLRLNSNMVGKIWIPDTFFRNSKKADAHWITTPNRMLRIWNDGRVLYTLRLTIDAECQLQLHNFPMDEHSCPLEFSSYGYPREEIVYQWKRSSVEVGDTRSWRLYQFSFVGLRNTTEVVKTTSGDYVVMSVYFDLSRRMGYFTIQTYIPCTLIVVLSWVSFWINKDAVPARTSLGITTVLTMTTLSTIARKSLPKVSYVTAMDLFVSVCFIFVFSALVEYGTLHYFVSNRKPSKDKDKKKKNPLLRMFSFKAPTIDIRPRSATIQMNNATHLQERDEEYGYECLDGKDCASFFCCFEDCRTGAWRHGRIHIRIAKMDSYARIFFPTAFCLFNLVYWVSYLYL
Experimental: as §1

α2β3γ2 GABAA receptor = target: T3, α2β3γ2 GABAA receptor (Homo sapiens, UniProt P28472+P47869); assay: as above; assay type: cell-based; settings: in presence of GABA, — = value not measurable
T3 construct: expressed in transfected cells
Experimental: as §1

α1β3γ2 GABAA receptor = target: T4, α1β3γ2 GABAA receptor (Homo sapiens, UniProt P14867+P28472); assay: as above; assay type: cell-based; settings: in presence of GABA, — = value not measurable
T4 construct: expressed in transfected cells
T4 sequence (P14867 28-456): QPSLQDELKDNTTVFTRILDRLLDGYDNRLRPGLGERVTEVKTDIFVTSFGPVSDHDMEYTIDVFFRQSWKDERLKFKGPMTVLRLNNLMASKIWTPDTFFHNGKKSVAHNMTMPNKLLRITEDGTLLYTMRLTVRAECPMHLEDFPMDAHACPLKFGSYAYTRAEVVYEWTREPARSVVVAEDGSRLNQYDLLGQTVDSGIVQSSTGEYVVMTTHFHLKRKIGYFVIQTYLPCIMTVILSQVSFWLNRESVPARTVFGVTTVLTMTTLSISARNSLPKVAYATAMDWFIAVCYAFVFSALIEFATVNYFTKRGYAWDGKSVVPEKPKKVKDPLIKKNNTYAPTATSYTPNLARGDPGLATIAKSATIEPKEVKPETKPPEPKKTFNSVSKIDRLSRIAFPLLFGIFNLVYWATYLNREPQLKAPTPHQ
T4 sequence (P28472 26-473): as the sequence (P28472 26-473) above
T4 sequence (P18507 40-475 partner): as the sequence (P18507 40-475 partner) above
Experimental: as §1

α6β1γ2 GABAA receptor = target: T5, α6β1γ2 GABAA receptor (Homo sapiens, UniProt P18505+Q16445); assay: as above; assay type: cell-based; settings: in presence of GABA, — = value not measurable
T5 construct: expressed in transfected cells
Experimental: as §1

α6β2γ2 GABAA receptor = target: T6, α6β2γ2 GABAA receptor (Homo sapiens, UniProt P47870+Q16445); assay: as above; assay type: cell-based; settings: in presence of GABA, — = value not measurable
T6 construct: expressed in transfected cells
T6 sequence (Q16445 20-453): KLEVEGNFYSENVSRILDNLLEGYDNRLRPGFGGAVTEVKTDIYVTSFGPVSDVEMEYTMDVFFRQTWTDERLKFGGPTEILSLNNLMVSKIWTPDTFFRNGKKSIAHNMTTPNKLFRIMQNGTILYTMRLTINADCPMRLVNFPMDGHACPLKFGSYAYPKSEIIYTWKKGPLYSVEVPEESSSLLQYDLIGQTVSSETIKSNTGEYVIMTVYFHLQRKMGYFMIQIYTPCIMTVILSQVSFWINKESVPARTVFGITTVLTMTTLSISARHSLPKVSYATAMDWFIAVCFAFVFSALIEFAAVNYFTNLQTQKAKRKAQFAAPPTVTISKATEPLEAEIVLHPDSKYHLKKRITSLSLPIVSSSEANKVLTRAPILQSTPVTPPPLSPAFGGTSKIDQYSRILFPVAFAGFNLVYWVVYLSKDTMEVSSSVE
T6 sequence (P47870 25-512 limits assumed): as the sequence (P47870 25-512 limits assumed) above
T6 sequence (P18507 40-475 partner): as the sequence (P18507 40-475 partner) above
Experimental: as §1

α4β3γ2 GABAA receptor = target: T7, α4β3γ2 GABAA receptor (Homo sapiens, UniProt P28472+P48169); assay: as above; assay type: cell-based; settings: in presence of GABA, — = value not measurable
T7 construct: expressed in transfected cells
Experimental: as §1

α4β1γ2 GABAA receptor = target: T8, α4β1γ2 GABAA receptor (Homo sapiens, UniProt P18505+P48169); assay: as above; assay type: cell-based; settings: in presence of GABA, — = value not measurable
T8 construct: expressed in transfected cells
Experimental: as §1

α1β2γ2 GABAA receptor [2] = target: T9, α1β2γ2 GABAA receptor (Homo sapiens, UniProt P14867+P47870); assay: as above; assay type: cell-based; settings: in presence of GABA, — = value not measurable
T9 construct: expressed in transfected cells
T9 sequence (P14867 28-456): as the sequence (P14867 28-456) above
T9 sequence (P47870 25-512 limits assumed): as the sequence (P47870 25-512 limits assumed) above
T9 sequence (P18507 40-475 partner): as the sequence (P18507 40-475 partner) above
Experimental: as §1

α5β3γ2 GABAA receptor = target: T10, α5β3γ2 GABAA receptor (Homo sapiens, UniProt P28472+P31644); assay: as above; assay type: cell-based; settings: in presence of GABA, — = value not measurable
T10 construct: expressed in transfected cells
T10 sequence (P31644 32-462): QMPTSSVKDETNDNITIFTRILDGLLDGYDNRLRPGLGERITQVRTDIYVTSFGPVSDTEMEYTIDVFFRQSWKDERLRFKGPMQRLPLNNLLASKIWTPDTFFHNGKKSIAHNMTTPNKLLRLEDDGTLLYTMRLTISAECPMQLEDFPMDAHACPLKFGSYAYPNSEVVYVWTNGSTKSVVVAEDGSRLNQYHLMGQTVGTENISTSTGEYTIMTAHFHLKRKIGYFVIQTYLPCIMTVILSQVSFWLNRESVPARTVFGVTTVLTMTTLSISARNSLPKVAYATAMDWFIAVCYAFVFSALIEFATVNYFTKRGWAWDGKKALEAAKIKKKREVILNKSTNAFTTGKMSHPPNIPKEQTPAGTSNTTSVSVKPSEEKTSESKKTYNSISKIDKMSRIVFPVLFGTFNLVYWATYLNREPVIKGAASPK
T10 sequence (P28472 26-473): as the sequence (P28472 26-473) above
T10 sequence (P18507 40-475 partner): as the sequence (P18507 40-475 partner) above
Experimental: as §1

α6β3γ2 GABAA receptor = target: T11, α6β3γ2 GABAA receptor (Homo sapiens, UniProt P28472+Q16445); assay: as above; assay type: cell-based; settings: in presence of GABA, — = value not measurable
T11 construct: expressed in transfected cells
T11 sequence (Q16445 20-453): as the sequence (Q16445 20-453) above
T11 sequence (P28472 26-473): as the sequence (P28472 26-473) above
T11 sequence (P18507 40-475 partner): as the sequence (P18507 40-475 partner) above
Experimental: as §1

α3β3γ2 GABAA receptor = target: T12, α3β3γ2 GABAA receptor (Homo sapiens, UniProt P28472+P34903); assay: as above; assay type: cell-based; settings: in presence of GABA, — = value not measurable
T12 construct: expressed in transfected cells
T12 sequence (P34903 29-492): as the sequence (P34903 29-492) above
T12 sequence (P28472 26-473): as the sequence (P28472 26-473) above
T12 sequence (P18507 40-475 partner): as the sequence (P18507 40-475 partner) above
Experimental: as §1

α1β1γ2 GABAA receptor = target: T13, α1β1γ2 GABAA receptor (Homo sapiens, UniProt P14867+P18505); assay: as above; assay type: cell-based; settings: in presence of GABA, — = value not measurable
T13 construct: expressed in transfected cells
Experimental: as §1

α3β1γ2 GABAA receptor = target: T14, α3β1γ2 GABAA receptor (Homo sapiens, UniProt P18505+P34903); assay: as above; assay type: cell-based; settings: in presence of GABA, — = value not measurable
T14 construct: expressed in transfected cells
Experimental: as §1

α2β1γ2 GABAA receptor = target: T15, α2β1γ2 GABAA receptor (Homo sapiens, UniProt P18505+P47869); assay: as above; assay type: cell-based; settings: in presence of GABA, — = value not measurable
T15 construct: expressed in transfected cells
Experimental: as §1

α5β1γ2 GABAA receptor = target: T16, α5β1γ2 GABAA receptor (Homo sapiens, UniProt P18505+P31644); assay: as above; assay type: cell-based; settings: in presence of GABA, — = value not measurable
T16 construct: expressed in transfected cells
Experimental: as §1

α2β2γ2 GABAA receptor = target: T17, α2β2γ2 GABAA receptor (Homo sapiens, UniProt P47869+P47870); assay: as above; assay type: cell-based; settings: in presence of GABA, — = value not measurable
T17 construct: expressed in transfected cells
Experimental: as §1

α5β2γ2 GABAA receptor = target: T18, α5β2γ2 GABAA receptor (Homo sapiens, UniProt P31644+P47870); assay: as above; assay type: cell-based; settings: in presence of GABA, — = value not measurable
T18 construct: expressed in transfected cells
T18 sequence (P31644 32-462): as the sequence (P31644 32-462) above
T18 sequence (P47870 25-512 limits assumed): as the sequence (P47870 25-512 limits assumed) above
T18 sequence (P18507 40-475 partner): as the sequence (P18507 40-475 partner) above
Experimental: as §1

[3] = target: picrotoxin binding site of GABAA receptors; settings: membranes from cortices of rat brains; Table 1 of WO 2016/061527; read-out: IC50 in the TBPS displacement assay; cited from earlier work
α4β3δ GABAA receptor [4] = target: T1, α4β3δ GABAA receptor; set-up: expressed in transfected cells; host or cells: CHO cells (transient); settings: 10 μM steroid, GABA 2 μM (EC20), CHO cells, Table 2 of WO 2016/061527; cited from earlier work
α1β2γ2 GABAA receptor [5] = target: T9, α1β2γ2 GABAA receptor; settings: 10 μM steroid, GABA 2 μM (EC20), LTK cells, Table 2 of WO 2016/061527; cited from earlier work

For `C[C@@]1(O)CC[C@@]2(C)[C@@H](CC[C@@H]3[C@@H]2CC[C@]2(C)[C@@H](C(=O)Cn4cc(C#N)cn4)CC[C@@H]32)C1` [CV-10155, 1-[2-[(3R,5S,8R,9S,10S,13S,14S,17S)-3-hydroxy-3,10,13-trimethyl-1,2,4,5,6,7,8,9,11,12,14,15,16,17-tetradecahydrocyclopenta[a]phenanthren-17-yl]-2-oxoethyl]pyrazole-4-carbonitrile], the “modulating activity across GABAA receptor subtypes tested” value (GABAA receptor subtypes) was “some level of positive allosteric modulating activity in all of the GABAA receptor subtypes tested”, the “activity on α4β3δ versus α1β2γ2 GABAA receptors” value (GABAA receptor subtypes; comparison of Example 1 data) was “substantially more active on α4β3δ GABAA receptors than on α1β2γ2 GABAA receptors” and the pEC50 (α4β3δ GABAA receptor [1]) was 6.97. It also gave a pEC50 (α3β2γ2 GABAA receptor) of 5.74, a pEC50 (α2β3γ2 GABAA receptor) of 6.53 and a pEC50 (α1β3γ2 GABAA receptor) of 6.28. The pEC50 (α6β1γ2 GABAA receptor) was 6.44, the pEC50 (α6β2γ2 GABAA receptor) was 5.96 and the pEC50 (α4β3γ2 GABAA receptor) was 5.88. The pEC50 (α4β1γ2 GABAA receptor) was 6.69, the pEC50 (α1β2γ2 GABAA receptor [2]) was 6.08 and the pEC50 (α5β3γ2 GABAA receptor) was 5.89. It also gave a pEC50 (α6β3γ2 GABAA receptor) of 6.61, a pEC50 (α3β3γ2 GABAA receptor) of 6.56 and a pEC50 (α1β1γ2 GABAA receptor) of 6.28. The pEC50 (α3β1γ2 GABAA receptor) was 6.02, the pEC50 (α2β1γ2 GABAA receptor) was 6.60 and the pEC50 (α5β1γ2 GABAA receptor) was 6.12. It also gave a pEC50 (α2β2γ2 GABAA receptor) of 6.67 and a pEC50 (α5β2γ2 GABAA receptor) of 6.44.
For `C[C@@]1(O)CC[C@@]2(C)[C@H](CC[C@@H]3[C@@H]2CC[C@]2(C)[C@@H](C(=O)Cn4cc(C#N)cn4)CC[C@@H]32)C1` [Compound 10], the pIC50 [3] is listed as over 8.00.
For `C[C@@]1(O)CC[C@@]2(C)[C@@H](CC[C@@H]3[C@@H]2CC[C@]2(C)[C@@H](C(=O)Cn4ccc(C#N)n4)CC[C@@H]32)C1` [Compound 121], the pIC50 [3] is given as 7.30 to 8.00, the “efficacy (relative potentiation of GABA-mediated conductance)” value (α4β3δ GABAA receptor [4]) is given as over 500% and the “efficacy (relative potentiation of GABA-mediated conductance)” value (α1β2γ2 GABAA receptor [5]) is given as over 500%.
For `C[C@]1(O)CC[C@@]2(C)[C@@H](CC[C@@H]3[C@@H]2CC[C@]2(C)[C@@H](C(=O)Cn4cc(C#N)cn4)CC[C@@H]32)C1` [SPNC-019, reference compound], the “modulating activity across GABAA receptor subtypes tested” value (GABAA receptor subtypes) was “no modulating activity in 15 of the 18 GABAA receptor subtypes tested”, the pEC50 (α5β3γ2 GABAA receptor) was 5.74 and the pEC50 (α6β3γ2 GABAA receptor) was 5.75. For the same molecule, the pEC50 (α5β2γ2 GABAA receptor) was 5.92.
